# Experimental data published in patent US20030032580A1, “Use of agonists or antagonists of the 5-HT7 receptor to treat disorders of the bladder” (Synaptic Pharmaceutical Corporation, priority 1999, published 2003).
# What was measured:
# 5-HT1E = 5-HT1E (Homo sapiens, UniProt P28566); settings: Adham et al., 1993; cited from earlier work
# human 5-HT7 receptor = target: T1, human 5-HT7 receptor (Homo sapiens, UniProt P34969); assay: Radioligand binding at cloned 5-HT7 receptor, this study ([3H]serotonin competition); settings: reference: this study, read-out: pK1 (converted)
# T1 construct: host or cells: LM(tk-) mouse fibroblasts, clone L-5HT-4B
# T1 sequence (P34969 1-445 isoform P34969-2): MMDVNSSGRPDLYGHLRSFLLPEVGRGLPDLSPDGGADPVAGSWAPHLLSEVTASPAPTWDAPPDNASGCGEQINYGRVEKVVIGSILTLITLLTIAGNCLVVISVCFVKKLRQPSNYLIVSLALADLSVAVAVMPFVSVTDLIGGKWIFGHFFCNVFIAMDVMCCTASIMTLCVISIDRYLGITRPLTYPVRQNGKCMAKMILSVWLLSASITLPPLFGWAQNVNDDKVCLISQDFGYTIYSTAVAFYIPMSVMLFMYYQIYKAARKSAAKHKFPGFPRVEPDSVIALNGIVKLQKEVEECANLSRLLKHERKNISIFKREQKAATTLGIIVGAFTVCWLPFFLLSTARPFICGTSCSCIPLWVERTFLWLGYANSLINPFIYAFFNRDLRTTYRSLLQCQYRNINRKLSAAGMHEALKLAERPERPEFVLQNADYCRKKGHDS
# Method: The binding of a test compound to a receptor of interest was generally evaluated by competitive binding assays using membrane preparations derived from cells which expressed the receptor. First, conditions were determined which allowed measurement of the specific binding of a compound known to bind to the receptor. Then, the binding of the known compound to the receptor in membrane preparations was evaluated in the presence of several different concentrations of the test compound.
# Human Serotonin Receptors. 5-HT1Dα, 5-HT1Dβ, 5-HT1E, 5-HT1F, and 5-HT7 Receptors: The cell lysates of LM(tk-) clonal cell line stably transfected with the genes encoding each of these 5-HT receptor-subtypes were prepared as described above. The cell line for the 5-HT1Dα receptor, designated as Ltk-8-30-84, was deposited on Apr. 17, 1990, and accorded ATCC Accession No. CRL 10421. The cell for the 5-HT1Dβ receptor, designated as Ltk-11, was deposited on Apr. 17, 1990, and accorded ATCC Accession No. CRL 10422. The cell line for the […] receptor, designated 5-HT1E-7, was deposited on Nov. 6, 1991, and accorded ATCC Accession No. CRL 10913. The cell line for the 5-HT1F receptor, designated L-5-HT1F, was deposited on Dec. 27, 1991, and accorded ATCC Accession No. ATCC 10957. […] Nonspecific binding was determined in the presence of 10 μM serotonin. […]
# [1] = target: T2, 5-HT7 receptor (first phase of the concentration-effect curve to 5-CT in the rat bladder) (Rattus norvegicus, UniProt P32305); assay: Electrically stimulated rat bladder strips: first (high potency) phase of the concentration-effect curve to 5-CT; type: cell-based; settings: bladder pKB versus published value
# T2 construct: from tissue; host or cells: rat urinary bladder detrusor strips
# T2 sequence (P32305 whole entry): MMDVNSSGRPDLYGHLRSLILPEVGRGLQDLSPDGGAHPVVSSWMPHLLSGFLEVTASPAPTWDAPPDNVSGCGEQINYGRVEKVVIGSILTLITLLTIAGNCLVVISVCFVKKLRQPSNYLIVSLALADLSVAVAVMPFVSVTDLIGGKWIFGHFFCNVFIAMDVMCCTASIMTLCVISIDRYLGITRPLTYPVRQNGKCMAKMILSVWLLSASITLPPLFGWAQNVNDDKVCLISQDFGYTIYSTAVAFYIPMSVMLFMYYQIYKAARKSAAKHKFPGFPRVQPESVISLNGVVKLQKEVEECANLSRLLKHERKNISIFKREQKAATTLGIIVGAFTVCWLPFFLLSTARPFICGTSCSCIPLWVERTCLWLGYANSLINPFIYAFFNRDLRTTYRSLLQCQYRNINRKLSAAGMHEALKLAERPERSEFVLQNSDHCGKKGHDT
# [2] = target: T3, 5-HT2B receptor (second phase of the concentration-effect curve to 5-CT in the rat bladder) (Rattus norvegicus, UniProt P30994); assay: Electrically stimulated rat bladder strips: second (low potency) phase of the concentration-effect curve to 5-CT; type: cell-based
# T3 construct: from tissue; host or cells: rat urinary bladder detrusor strips
# T3 sequence (P30994 whole entry): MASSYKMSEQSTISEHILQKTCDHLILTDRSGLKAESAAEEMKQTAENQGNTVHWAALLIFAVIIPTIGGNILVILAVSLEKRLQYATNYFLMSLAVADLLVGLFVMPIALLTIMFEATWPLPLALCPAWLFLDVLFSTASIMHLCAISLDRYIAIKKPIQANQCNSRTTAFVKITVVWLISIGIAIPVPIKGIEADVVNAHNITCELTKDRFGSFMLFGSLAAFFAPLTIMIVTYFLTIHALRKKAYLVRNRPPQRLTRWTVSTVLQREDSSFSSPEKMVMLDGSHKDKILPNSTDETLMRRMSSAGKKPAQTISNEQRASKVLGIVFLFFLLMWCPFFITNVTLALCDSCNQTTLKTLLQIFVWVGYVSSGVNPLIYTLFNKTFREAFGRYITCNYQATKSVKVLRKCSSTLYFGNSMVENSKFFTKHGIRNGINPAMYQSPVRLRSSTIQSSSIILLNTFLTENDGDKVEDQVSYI
# [3] = target: cloned rat 5-HT2B receptor (Rattus norvegicus, UniProt P30994); settings: cited from earlier work
# Sequence of cloned rat 5-HT2B receptor (P30994 whole entry): as above
# Sequence of 5-HT1E (P28566 whole entry): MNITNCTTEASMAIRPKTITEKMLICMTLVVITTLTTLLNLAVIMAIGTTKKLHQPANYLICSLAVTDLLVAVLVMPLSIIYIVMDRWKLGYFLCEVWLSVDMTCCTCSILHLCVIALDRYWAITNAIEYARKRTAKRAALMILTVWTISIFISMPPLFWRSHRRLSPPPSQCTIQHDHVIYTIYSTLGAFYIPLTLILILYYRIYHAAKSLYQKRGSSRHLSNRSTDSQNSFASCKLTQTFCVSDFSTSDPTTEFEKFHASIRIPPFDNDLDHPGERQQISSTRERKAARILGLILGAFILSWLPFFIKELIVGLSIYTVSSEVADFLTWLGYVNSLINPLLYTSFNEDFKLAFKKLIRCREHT
smiles,measurement,setting,value
COC(=O)[C@H]1[C@H]2C[C@H]3c4[nH]c5ccccc5c4CCN3C[C@H]2CC[C@@H]1O [rauwolscine],"pKB, 5-HT1E",5-HT1E,5.5
same,Ki,human 5-HT7 receptor,2.51 µM
same,first-phase affinity lower than affinity for the 5-HT2B receptor subtype,[1],more than 10 fold
same,"second-phase affinity greater than affinity for 5-HT1B, 5-HT1E, 5-HT2A and 5-HT2C subtypes",[2]; bladder pKB versus published values,at least 10 fold
same,Kb,"[2]; inhibition of the second phase of the concentration-effect curve to 5-CT in the rat bladder, read-out: pKB (converted)",0.0158 µM
same,"pKB, 5-HT2B","[3]; Wainscott et al., 1993",7.5
same,pK1,"[3]; cloned rat 5-HT2B receptor, reference 1 (Wainscott et al., 1993)",7.5-7.6
